BindingDB's records for doi:10.1021/jm00044a016 (University of Paris, 1994)

molecular target: Glutamyl aminopeptidase (Oryctolagus cuniculus); experiment: Inhibition of aminopeptidase A (APA)

Row | SMILES | Ki
1 | NC(CS)CC(C(=O)O)C(=O)O (stereo not given) [2-(2-Amino-3-mercapto-propyl)-malonic acid] | 3500 nM
2 | NC(CS)CCC(C(=O)O)C(=O)O (stereo not given) [2-(3-Amino-4-mercapto-butyl)-malonic acid] | 280 nM
3 | NC(CS)CCCCC(=O)O (stereo not given) [6-Amino-7-mercapto-heptanoic acid] | 1600 nM
4 | NC(CS)CCCP(=O)(O)O (stereo not given) [(4-Amino-5-mercapto-pentyl)-phosphonic acid] | 510 nM
5 | N[C@H](CS)CCCS(=O)(=O)O [Sodium; (S)-4-amino-5-mercapto-pentane-1-sulfonate] | 370 nM
